Patent US20200253929A1, “TREATMENT OF EPILEPSY” (priority 2017, published 2020)

Columns and labels:
HEPG2 cells = test: Cell viability MTT assay, HEPG2 cells; format: cell-based, human; details: 24 h incubation; for IC50: read-out: Cytotoxicity HEPG2 cells IC50
Method: Protocol was based on literature [Patel and Patel. (2011) J. App. Pharm. Sci 1, 167-171]. Three cell lines were used: a) Hep G2 (HB-8065), a well-differentiated human hepatocellular carcinoma cell line, b) THLE-2, human liver epithelial cells transformed with SV40 large T-antigen and c) SHSYSY, a thrice-cloned sub-line of a human metastatic bone tumor. Cells were seeded at a concentration of 1×10^4 cells/well in 200 μL culture medium and incubated at 37° C. in 5% CO2 using 96-well plates for 24 h. Next, the medium was replaced with medium complemented with test compounds. After another 24 h incubation, the medium was replaced by 100 μL of a MTT (3-(4,5-dimethylthiazol-2-yl)-2,5-diphenyltetrazolium bromide) solution (5 mg/mL in PBS and diluted at 0.5 mg/mL in MEM without phenol red). The plates were gently shaken and incubated for 3 hours at 37° C. in a 5% CO2 incubator. The supernatant was removed and 100 μL of 100% DMSO was added. The plates were gently shaken to solubilize the formed formazan. The absorbance was measured using a multireader (Victor2 (Wallac)) at a wavelength of 570 nm.

[1] = test system: PTZ-induced seizures in zebrafish larvae; test: Zebrafish PTZ seizure model, behavioral analysis; format: in vivo, Danio rerio; details: lower concentrations (MTC/2, MTC/4), 2 hours incubation
NMRI mice = test: Mouse 6-Hz (44 mA) psychomotor seizure model; format: in vivo; details: for mean seizure duration / mice protected against induced seizures: 30 min before electrical stimulation
Description: Although the zebrafish model has a high degree of genetic, physiological and pharmacological conservation^13, it is more distinct from humans than mammals. Therefore, we were interested to see if the observed antiseizure properties of azaspirofuran A and pseurotin A2 would translate to a rodent model. The mouse 6-Hz (44 mA) psychomotor seizure model was chosen, because it can detect compounds with novel antiseizure mechanisms and with potential against drug-resistant seizures [Barton et al. (2001) Epilepsy Res 47, 217-227; Wilcox et al. (2013) Epilepsia 54 S4, 24-34]. In this model drug-resistant focal impaired awareness seizures [Fisher et al. (2017) Epilepsia 58, 531-542], previously referred to as complex partial or psychomotor seizures [Holcomb and Dean (2011) Psychomotor Seizures, In Encyclopedia of Child Behavior and Development (Goldstein, S., and Naglieri, J. A., Eds.), pp 1191-1192, Springer US, Boston, Mass.], are induced by low frequency, long duration corneal electrical stimulation (6 Hz, 0.2 ms rectangular pulse width, 3 s duration, 44 mA) and are characterized by stun, twitching of the vibrissae, forelimb clonus, and Straub tail. […] Stimulated mice with a seizure duration shorter than 27 seconds were thus considered to be protected. […] Besides, this study provides another example of the translation of results from zebrafish to rodent seizure models.
Experimental procedure was described in Copmans et al. (2018) Neurochem. Int. 112, 124-133. before Buenafe et al. cited above; Orellana-Paucar cited above. In brief, NMRI mice (average weight 28 g, range 23-32 g) were randomly divided into control and treatment groups (n=5-10). 50 μL (injection volume was adjusted to the individual weight) of VHC (PEG200:DMSO:water; 0.25:0.25:0.5) or treatment (an ASD or test compound dissolved in VHC) was i.p. injected in mice and after 30 or 120 (in case of phenytoin, as reported by Barton et al. cited above) min psychomotor seizures were induced by low frequency, long duration corneal electrical stimulation (6 Hz, 0.2 ms rectangular pulse width, 3 s duration, 44 mA) using an ECT Unit 5780 (Ugo Basile, Comerio, Italy). Mice were manually restrained and a drop of ocular anesthetic (0.5% lidocaine) was applied to the corneas before stimulation. Following electrical current stimulation, the mouse was released in a transparent cage for behavioral observation, which was video-recorded. […] In addition, facial and mouth jerking as well as head nodding were observed occasionally. Mice displaying normal exploratory and locomotion behavior within a time period of 26 seconds were considered to be protected against the induced psychomotor seizures. Seizure durations were measured during the experiment by experienced researchers, familiar with the different seizure behaviors. In addition, seizure durations were determined by blinded video analysis to confirm or correct the initial observations. Data are expressed as mean±SD.

Row | Compound | Cytotoxicity HEPG2 cells, effect (HEPG2 cells) | IC50 (HEPG2 cells) [µM] | PTZ-induced seizure behavior, concentration-response retest [1] | mean seizure duration (NMRI mice; 40 mg/kg i.p.) [s] | mice protected against induced seizures (NMRI mice; 40 mg/kg i.p.) | antiseizure activity (NMRI mice; 20 and 10 mg/kg i.p.) | antiseizure activity (NMRI mice; 2.5 mg/kg i.p.) | mean seizure duration (NMRI mice; 10 mg/kg i.p.) [s] | mice protected against induced seizures (NMRI mice; 10 mg/kg i.p.)
1 | CCc1ccc(C2=C(C)C(=O)C3(O2)C(=O)NC(OC)(C(=O)c2ccccc2)C3O)o1 (stereo not shown) [azaspirofuran A] | No effect | > 50 | No antiseizure activity | 24 | 5 out of 7 | no significant effects | – | – | –
2 | CC/C=C\[C@H](O)[C@H](O)C1=C(C)C(=O)[C@]2(O1)C(=O)N[C@](OC)(C(=O)c1ccccc1)[C@H]2O [pseurotin A2] | No effect | > 50 | – | 26 | 4 out of 7 | – | inactive | 27 | 5 out of 6
